Laboratory results reported in patent publication US20120308538A1, “PREVENTING SPOILAGE IN ALCOHOL FERMENTATIONS” (priority 2011, published 2012).
Bridges are numbered along the chain shown (N, C = ends). Where no end group is shown, it is not given here.

How the values were obtained:
Lactobacillus brevis = format: cell-based
Protocol: (§1) Cultures of Lactobacillus brevis L1055 or a control bacterium Staphylococcus aureus-were cultured at 37° C. overnight in MRS media (10 g litre^−1 universal peptone, 5 g litre^−1 meat extract, 5 g litre^−1 yeast extract, 20 g litre^−1 D(+)-glucose, 2 g litre^−1 K2HPO4, 2 g litre^−1 diammonium hydrogen citrate, 5 g litre NaOAc, 0.1 g litre^−1 MgSO4, 0.05 g litre^−1 MnSO4, final pH 6.5+/−0.2 at 37° C.). To prevent yeast growth in samples taken from fermentations seeded with L. brevis, the MRS medium was supplemented with cycloheximide at 10 μg/ml. The cultures were diluted to give a final densitiy of approximately 10^3 cells/mL. Synthetic HBD (0.5-10 μg/mL) was added to the bacterial cultures in a final volume of 100 μl volumes. CMBS cultures containing the pGREG, HBD-3-505V or HBD-3-506V were grown in overnight synthetic medium plus galactose (2%). The supernatants were concentrated (1000-fold) using molecular filtration membranes [Molecular Weight Cut Off (MWCO) 2000] ensuring all unspent sugar was removed from the medium. The concentrated supernatants were added to the bacterial cultures as described above. Following a two-hour incubation at 37° C., the number of bacterial colonies in each sample was determined following incubation on MRS plates containing cycloheximide at 37° C. for 48 hrs.
(§2) To test the activity of β-Defensin-3 against beer-spoiling bacteria, a defensin bioassay was carried out as described in the Methods section. Since our goal was to express HBD-3 in lager yeast, the cytotoxic effects of HBD-3 against the lager yeast CBMS was also examined. […] The minimum inhibitory concentration (MIC) values for HBD-3 against Lb. brevis and Lb. malefermentas were 5 μg/ml 0.5 μg/ml respectively. The LD-100 and MIC were lower than that required against other gram positive strains such as S. mutans, S. pyogenes, and […]. […] (data not shown).

[1] = system: Lactobacillus malifermentus; format: cell-based
Protocol: as §1, §2

lager yeast CBMS = assay: Cytotoxic effects of HBD-3 against the lager yeast; format: cell-based, Saccharomyces pastorianus; conditions: data not shown
Protocol: as §2

[2] = system: Lactobacillus brevis 1105; assay: HBD-3 activity in beer fermentations: brew samples seeded with bacteria incubated with HBD-3; format: cell-based; conditions: HBD-3 5 μg/mL; day 14 brew samples; seeded day 6 at 10^2 and 10^4 cfu/ml; two independent fermentations
Lb. brevis = assay: In situ antimicrobial activity of HBD-3 secreted from yeast strains under fermentation conditions; format: cell-based, Lactobacillus brevis; conditions: summary statement, spoilage bacteria
Protocol: Yeast strains were grown up from single colonies in 3 mL YEP-Maltose medium (YEPM) and expanded to 2 liters. 40% (w/v) wort was reconstituted in water from spray-dried malt (Belgium) supplemented with 1 mM Zinc and autoclaved. The wort was diluted to give 1.02-1.060 g/mL density (10-15° Plato), and aerated. The yeast harvested from the 2 liter YEPM medium was resuspended in the diluted wort to give a yeast concentration of 1−1.5×10^7 cells/mL in either 250 ml sterile glass cylinders or in 2 L cylindro-conical EBC vessels. Wort was aerated once with compressed air, bubbling from the bottom of the vessel and anaerobic conditions were maintained by overlying with mineral oil. Flasks were incubated at a 45° angle, and incubated at 11-13° C. The density of the solution was measured every other day for 14 days. Samples were also used for the measurement of HBD-3 in the medium. At the end of the brewing period, yeast were recovered and stored for re-pitching if required. To test the efficacy of the HBD-3-yeast to prevent beer spoilage, individual beer spoilage bacterial strains (10^3/mL) were introduced along with pitching yeast. The surviving bacteria were quantified every other day along with viable yeast cells in the brew. The physical and chemical characteristics of the brew as well as taste and palatability were also measured with the help of healthy volunteers. […]

beer spoilage bacteria = assay: Beer spoilage challenge in the bottled product (pilot scale 50 L fermentations); conditions: bottled product from CM-PGK-51 fermentation; no freeze-thawing cycle; larger than usual amounts of bacteria
Protocol: Pilot scale fermentations (50 L) were carried out using CM-PGK-51 as a starter culture.

[3] = synthetic HBD-3, two-hour incubation at 37° C.

Sequence: GIINTLQKYYCRVRGGRCAVLSCLPKEEQIGKCSTRGRKCCRRKK (disulfide 11-40, 18-33, 23-41 (inferred)) [HBD-3, human β-defensin-3]
- minimum inhibitory concentration (MIC) (Lactobacillus brevis; synthetic HBD-3): 5 mg/L
- LD-100 (effectively killed at concentration) (Lactobacillus brevis; [3]): 10 µg/mL
- minimum inhibitory concentration (MIC) ([1]; synthetic HBD-3): 0.5 mg/L
- LD-100 (effectively killed at concentration) [1, 3]: 1 µg/mL
- HBD-3 concentrations at which lager yeasts were resistant (lager yeast CBMS): up to 100 μg/ml
- reduction of bacterial load in the wort [2]: 100 fold
- reduction of bacterial load after quick freezing of the brew (Lb. brevis): 90-95%
- protective effects in beer spoilage challenge (beer spoilage bacteria): did not reveal any protective effects
